According to the supplement of paper PMC10307832:

Key:
Assay in all cases: relative viability (nuclei count vs DMSO), 5 days (fraction); higher = more cells survive
[1] = compound: O=C(/C=C/c1ccccc1)NC(NC(=S)Nc1cccc2cccnc12)C(Cl)(Cl)Cl [Salubrinal] + Nc1nc2[nH]cc(CCc3ccc(C(=O)N[C@@H](CCC(=O)O)C(=O)O)cc3)c2c(=O)[nH]1 [Pemetrexed] (partner 0.2 µM)
In short: (§1)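 Lung cancer cell lines were pin-tool dosed in 1536-well plates on the day after seeding, with either a lone drug or a fixed anchor-drug dose plus five library-drug doses (not always all listed) in √10 steps. Nuclei were counted on 4× images after 5 days. Relative viability is the ratio of treated-well to vehicle-well nuclei counts, with each value a median of duplicate plates.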

[2] = compound: O=C(/C=C/c1ccccc1)NC(NC(=S)Nc1cccc2cccnc12)C(Cl)(Cl)Cl [Salubrinal] + C[C@@H](Oc1cc(-c2cnn(C3CCNCC3)c2)cnc1N)c1c(Cl)ccc(F)c1Cl [Crizotinib] (partner 1 µM)
In short: as §1

[3] = compound: Cc1ccc2nc(NCCN)c3ncc(C)n3c2c1 + Cc1cc(Nc2cc(N3CCN(C)CC3)nc(Sc3ccc(NC(=O)C4CC4)cc3)n2)n[nH]1 [Tozasertib] (partner 0.1 µM)
In short: as §1

[4] = compound: O=C(/C=C/c1ccccc1)NC(NC(=S)Nc1cccc2cccnc12)C(Cl)(Cl)Cl [Salubrinal] + CC1(C)CCC(c2ccc(Cl)cc2)=C(CN2CCN(c3ccc(C(=O)NS(=O)(=O)c4ccc(N[C@H](CCN5CCOCC5)CSc5ccccc5)c(S(=O)(=O)C(F)(F)F)c4)cc3)CC2)C1 [Navitoclax] (partner 0.5 µM)
In short: as §1

| Cell Line | relative viability ([1]; first compound 0.08 µM) | relative viability ([1]; first compound 0.8 µM) | relative viability ([1]; first compound 2.53 µM) | relative viability ([1]; first compound 8 µM) | relative viability ([2]; first compound 0.08 µM) | relative viability ([2]; first compound 0.253 µM) | relative viability ([2]; first compound 0.8 µM) | relative viability ([2]; first compound 2.53 µM) | relative viability ([2]; first compound 8 µM) | relative viability ([3]; first compound 0.04 µM) | relative viability ([3]; first compound 0.1265 µM) | relative viability ([3]; first compound 1.265 µM) | relative viability ([3]; first compound 4 µM) | relative viability ([4]; first compound 0.08 µM) | relative viability ([4]; first compound 0.253 µM) | relative viability ([4]; first compound 0.8 µM) | relative viability ([4]; first compound 2.53 µM) | relative viability ([4]; first compound 8 µM) | relative viability ([1]; first compound 0.253 µM) | relative viability ([3]; first compound 0.4 µM) |
| --- | --- | --- | --- | --- | --- | --- | --- | --- | --- | --- | --- | --- | --- | --- | --- | --- | --- | --- | --- | --- |
| NCI-H1915 | 0.477 | 0.562 | 0.495 | 0.466 | 0.994 | 0.643 | 1.03 | 0.875 | 0.836 | 0.481 | 0.492 | 0.432 | 0.416 | 0.774 | 0.778 | 0.83 | 0.759 | 0.774 |  |  |
| NCI-H596 | 0.493 | 0.56 | 0.509 | 0.466 | 1.07 | 0.901 | 1.07 | 1.02 | 1.05 | 1.16 | 1.01 | 0.883 | 0.863 | 1.01 | 1.09 | 0.959 | 0.869 | 1.01 | 0.518 | 0.922 |
| NCI-H322M | 0.699 | 0.684 | 0.574 | 0.544 | 0.898 | 0.901 | 1.08 | 0.872 | 0.944 | 0.553 | 0.452 | 0.547 | 0.462 | 1.38 | 1.19 | 1.34 | 1.23 | 1.16 | 0.578 | 0.528 |
| NCI-H2228 | 0.334 | 0.404 | 0.326 | 0.277 | 0.496 | 0.446 | 0.632 | 0.353 | 0.362 | 0.297 | 0.266 | 0.224 | 0.219 | 1.43 | 0.661 | 0.888 | 1.07 | 0.767 |  | 0.279 |
| NCI-H647 | 0.199 | 0.184 | 0.196 | 0.147 | 1.44 | 0.891 | 1 | 1.12 | 0.905 | 0.246 | 0.306 | 0.281 | 0.128 | 1.31 | 1.12 | 1.22 | 1.07 | 1.03 | 0.174 | 0.356 |
| NCI-H2170 | 0.258 | 0.318 | 0.258 | 0.257 | 1.45 | 1.06 | 1.38 | 1.26 | 1.21 | 0.755 | 0.625 | 0.671 | 0.679 | 0.662 | 0.581 | 0.631 | 0.598 | 0.503 | 0.273 | 0.694 |
| NCI-H2085 | 1.03 | 0.923 | 0.941 | 0.867 | 0.901 | 0.804 | 0.789 | 0.813 | 0.834 | 0.801 | 0.765 | 0.703 | 0.802 | 1.26 | 1 | 1.23 | 1.07 | 1.21 | 0.88 | 0.881 |
| SW 1573 | 0.952 | 0.941 | 0.69 | 0.742 | 0.653 | 0.747 | 0.866 | 0.781 | 0.898 | 0.187 | 0.177 | 0.214 | 0.157 | 1.02 | 1 | 0.937 | 0.929 | 1.01 | 0.586 | 0.19 |
| NCI-H441 | 0.271 | 0.274 | 0.275 | 0.255 | 0.689 | 0.665 | 0.73 | 0.766 | 0.652 | 0.605 | 0.631 | 0.625 | 0.685 | 0.437 | 0.711 | 0.642 | 0.678 | 0.913 | 0.274 | 0.716 |
| LOU-NH91 | 0.708 | 0.5 | 0.343 | 0.371 | 0.787 | 0.747 | 0.74 | 0.756 | 0.75 | 0.654 | 0.628 | 0.626 | 0.617 | 0.81 | 0.73 | 0.737 | 0.699 | 0.617 | 0.368 | 0.638 |
| NCI-H3122 | 0.198 | 0.204 | 0.198 | 0.195 | 0.285 | 0.277 | 0.255 | 0.295 | 0.276 | 0.436 | 0.391 | 0.352 | 0.293 | 1.09 | 1.01 | 1.06 | 1.06 | 1.09 | 0.181 | 0.412 |
| NCI-H460 | 0.0573 | 0.0626 | 0.0636 | 0.0643 | 1.18 | 0.891 | 0.843 | 0.909 | 0.541 | 0.453 | 0.481 | 0.312 | 0.386 | 1.43 | 0.487 | 1.45 | 1.17 | 1.03 | 0.0837 | 0.603 |
| NCI-H1734 | 0.423 | 0.41 | 0.427 | 0.409 | 0.694 | 0.774 | 0.842 | 0.674 | 0.772 | 0.275 | 0.258 | 0.237 | 0.243 | 0.938 | 0.755 | 0.964 | 0.858 | 0.745 | 0.454 | 0.211 |
| LXF-289 | 1.06 | 0.988 | 0.851 | 0.851 | 0.869 | 0.73 | 0.818 | 0.757 | 0.8 | 0.186 | 0.192 | 0.178 | 0.212 | 0.99 | 0.898 | 1.04 | 0.943 | 0.868 | 0.891 | 0.163 |
| H3255 | 0.562 | 0.558 | 0.557 | 0.604 | 1.16 | 0.823 | 1.12 | 0.804 | 0.775 | 0.703 | 0.55 | 0.477 | 0.455 | 0.637 | 0.481 | 0.582 | 0.523 | 0.564 | 0.582 | 0.629 |
| 201T | 0.356 | 0.403 | 0.318 | 0.364 | 0.997 | 1 | 1.05 | 1.01 | 1.02 | 0.985 | 0.976 | 0.971 | 0.913 | 1.2 | 1.2 | 1.24 | 1.19 | 1.22 | 0.321 | 0.908 |
